Converted amounts (≈) assume the structure as drawn.
Experiments:
[1] = Solubility of the compound in phosphate buffer at pH 6.5 by HPLC-DAD-MS analysis; format: physicochemical
[2] = Solubility of the compound in 0.01 M HCl at pH 2; format: physicochemical
[3] = Volume of distribution at steady state in Sprague-Dawley rat blood at 4 mg/kg, iv; format: ADME, organism-based; set-up: dose 4 mg/kg, route intravenous; details: read-out: Vdss
[4] = Volume of distribution at steady state in Sprague-Dawley rat plasma at 4 mg/kg, iv; format: ADME, organism-based; set-up: dose 4 mg/kg, route intravenous; details: read-out: Vdss
[5] = Solubility of the compound in phosphate buffer at pH 6.5 by nephlometric analysis; format: physicochemical
[6] = Oral bioavailability in Sprague-Dawley rat at 19 mg/kg; format: ADME, organism-based; details: in vivo
[7] = AUC (0 to infinity) in Sprague-Dawley rat at 4 mg/kg, iv; format: ADME, organism-based; set-up: dose 4 mg/kg, route intravenous, time infinity; details: plasma
Rattus norvegicus [8] = assay: AUC (0 to infinity) in Sprague-Dawley rat at 19 mg/kg, po; format: ADME, organism-based, Plasma; set-up: time infinity, dose 19 mg/kg, route oral; details: in vivo
Rattus norvegicus [9] = assay: Tmax in Sprague-Dawley rat at 19 mg/kg, po; format: ADME, organism-based; set-up: dose 19 mg/kg, route oral; details: in vivo
Rattus norvegicus [10] = assay: Cmax in Sprague-Dawley rat at 19 mg/kg, po; format: ADME, organism-based; set-up: dose 19 mg/kg, route oral; details: in vivo
physchem = details: octanol/water, pH 7.4
[11] = Plasma concentration in Swiss outbred mouse infected with Plasmodium berghei at 50 mg/kg, po measured at 24 hrs; format: ADME, organism-based; set-up: dose 50 mg/kg, route oral
[12] = Plasma concentration in Swiss outbred mouse infected with Plasmodium berghei at 50 mg/kg, po measured at 4 hrs; format: ADME, organism-based; set-up: dose 50 mg/kg, route oral
[13] = Plasma concentration in Swiss outbred mouse infected with Plasmodium berghei at 50 mg/kg, po measured at 1 hr; format: ADME, organism-based; set-up: dose 50 mg/kg, route oral

| solubility [1] [µg/mL] | solubility [2] [µg/mL] | solubility kinetic [5] [µg/mL] | chromatographic logD (physchem) | SMILES | also measured |
| --- | --- | --- | --- | --- | --- |
| – | > 100 | > 100 | 2.2 | CNc1nc(NCCCN(C)C)c2sc(-c3ccccc3)cc2n1 | Vd [3]: 37 L/kg; Vd [4]: 139 L/kg; bioavailability [6]: 34%; AUC(0-inf) [7]: 1.28 µM·h; AUC (Rattus norvegicus [8]): 125 µM·min; Tmax (Rattus norvegicus [9]): 1.75 h; Cmax (Rattus norvegicus [10]): 8 nM |
| 177 (≈ 432 µM) | 240 (≈ 586 µM) | – | 4.1 | CNc1nc(NCCCN(C)C)c2sc(-c3ccc(C(F)(F)F)cc3)cc2n1 | concentration at 24 h [11]: 210 nM; concentration at 4 h [12]: 220 nM; concentration at 1 h [13]: 410 nM |
| – | > 100 | 25 (≈ 68.2 µM) | 2.9 | CNc1nc(NCCCN(C)C)c2sc(-c3cccc(C#N)c3)cc2n1 | – |
| – | > 100 | 50 (≈ 136 µM) | – | CNc1nc(NCCCN(C)C)c2sc(-c3ccc(C#N)cc3)cc2n1 | – |
| – | > 100 | 12.5 (≈ 35.1 µM) | 2.3 | CNc1nc(NCCCN(C)C)c2sc(-c3ccc(N)cc3)cc2n1 | – |
| – | > 100 | 25 (≈ 57.5 µM) | 2.1 | CNc1nc(NCCCN(C)C)c2sc(-c3ccc(NS(C)(=O)=O)cc3)cc2n1 | – |
| – | > 100 | 25 (≈ 59.6 µM) | 2.1 | CNc1nc(NCCCN(C)C)c2sc(-c3ccc(S(C)(=O)=O)cc3)cc2n1 | – |
| – | > 100 | 12.5 (≈ 32.6 µM) | 2.9 | CNc1nc(NCCCN(C)C)c2sc(-c3ccc(C(C)=O)cc3)cc2n1 | – |

The remaining lines, values behind:

| SMILES | solubility [1] [µg/mL] | solubility [2] [µg/mL] | solubility kinetic [5] [µg/mL] | chromatographic logD (physchem) | also measured |
| --- | --- | --- | --- | --- | --- |
| CNc1nc(NCCCN(C)C)c2sc(-c3cc(C(F)(F)F)cc(C(F)(F)F)c3)cc2n1 | 130 (≈ 272 µM) | 186 (≈ 390 µM) | – | – | – |
| CNc1nc(NCCCN(C)C)c2cc(-c3ccccc3)sc2n1 | 184 (≈ 539 µM) | 216 (≈ 633 µM) | – | – | – |
| CNc1nc(NCCCN(C)C)c2oc(-c3ccccc3)cc2n1 | 203 (≈ 624 µM) | 214 (≈ 658 µM) | – | – | – |
| CNc1nc(NCCCN(C)C)c2sc(-c3cccc(C(F)(F)F)c3)cc2n1 | 160 (≈ 391 µM) | 180 (≈ 440 µM) | – | – | – |
| CNc1nc(NCCCN(C)C)c2sc(-c3ccc(C(F)(F)F)nc3)cc2n1 | – | > 100 | 12.5 (≈ 30.5 µM) | 3 | – |
| CNc1nc(NCCCN(C)C)c2sc(-c3cccc(OC(F)(F)F)c3)cc2n1 | – | > 100 | > 100 | 4.3 | – |
| CNc1nc(NCCCN(C)C)c2sc(-c3ccc(OC(F)(F)F)cc3)cc2n1 | – | > 100 | > 100 | 4.6 | – |
| CNc1nc(NCCCN(C)C)c2sc(-c3ccc(OC)nc3)cc2n1 | – | > 100 | 25 (≈ 67.1 µM) | 2.8 | – |
| CNc1nc(NCCCN(C)C)c2sc(-c3ccc(F)cc3)cc2n1 | – | – | – | – | concentration at 24 h [11]: 40 nM; concentration at 4 h [12]: 90 nM; concentration at 1 h [13]: 140 nM |
| CNc1nc(NCCCN(C)C)c2sc(-c3ccc(N4CCOCC4)cc3)cc2n1 | – | 12.5 (≈ 29.3 µM) | 12.5 (≈ 29.3 µM) | 3 | – |
| CNc1nc(NCCCN(C)C)c2sc(-c3ccc(N4CCNCC4)cc3)cc2n1 | – | > 100 | 12.5 (≈ 29.4 µM) | 3.5 | – |
| CNc1nc(NCCCN(C)C)c2sc(-c3ccc(-n4cccn4)cc3)cc2n1 | 191 (≈ 469 µM) | 217 (≈ 532 µM) | – | – | – |
| CNc1nc(NCCCN(C)C)c2sc(-c3ccc(C(F)(F)F)cc3Cl)cc2n1 | – | > 100 | > 100 | 4.5 | – |
| CNc1nc(NCCCN(C)C)c2sc(-c3cncnc3)cc2n1 | 194 (≈ 565 µM) | 214 (≈ 623 µM) | – | – | – |
| CNc1nc(NCCCN(C)C)c2sc(-c3ccc4nonc4c3)cc2n1 | – | > 100 | 25 (≈ 65.2 µM) | 3.3 | – |
| CNc1nc(NCCCN(C)C)c2sc(-c3ccoc3)cc2n1 | 203 (≈ 612 µM) | 221 (≈ 667 µM) | – | – | – |
| CNc1nc(NCCCN(C)C)c2sc(-c3ccc(C(=O)N4CCOCC4)cc3)cc2n1 | – | > 100 | 25 (≈ 55 µM) | 2.2 | – |
